Assay results as given in US4320052A, “Derivatives of A-30912A nucleus” (Eli Lilly and Company, priority 1980, dated 1982).
In brackets after ≈: the same amount, converted by molar mass. Several values for one entry are separate records, joined by “and”; a condition that tells them apart may be missing. Equal values may be shown once. Read-outs that look alike come from different tables or passages of the source. Numbered stars: 1 amine (or outer) side, 2 acyl side, 3 side chain; on linkers, the order of the positions; unused ones are H or OH. Bridge positions count the residues as written; N and C are the ends. Square brackets hold non-standard residues; d marks the D form. Peptide text beside a SMILES is read from it. * marks the point of attachment. Orn(4R-OH,5R-OH) = O=C([C@H](C[C@@H](O)[C@@H](O)N[*:3])N[*:1])[*:2]; hTyr(3S-OH,4S-OH) = N[C@H](C(=O)O)[C@H](O)[C@@H](O)c1ccc(O)cc1; Pro(3S-OH,4S-Me) = C[C@H]1CN[C@H](C(=O)O)[C@H]1O; Docosanoyl = CCCCCCCCCCCCCCCCCCCCCC(=O)*; Nonadecanoyl = CCCCCCCCCCCCCCCCCCC(=O)*; Arachidoyl = CCCCCCCCCCCCCCCCCCCC(=O)*; X1 = CC/C=C\C/C=C\C/C=C\CCCCCCCC(=O)*; Hyp = O=C(O)[C@@H]1C[C@@H](O)CN1; Tridecanoyl = CCCCCCCCCCCCC(=O)*

Tests used:
Candida albicans = assay: Agar dilution test against strains of Candida albicans (MIC); assay type: cell-based
Protocol: (§1) Tables II and III give the results of the testing in vitro of the compounds of Examples 1-16 by agar-plate disc-diffusion methods. In Table II activity is measured by the size (diameter in mm.) of the observed zone of inhibition of the microorganism produced by the test compound. In Table III, activity is measured by the minimal inhibitory concentration (MIC) of the substance (μg/dic) required to inhibit growth of the test organism. Table IV gives the results of the testing in vitro of the n-tridecanoyl derivative of A30912A nucleus (Formula III, R is n-C12 H25) against five strains of Candida albicans by the agar dilution method. In […] activity is measured by the minimal inhibitory concentration (MIC) of the substance (μg/ml) required to inhibit the test organism.

[1] = system: Trichophyton mentagraphytes A-23; assay: Agar plate disc diffusion test (zone of inhibition); assay type: cell-based, Trichophyton mentagrophytes
Protocol: as §1
(§2) ^(a) Compounds were tested as suspension in methanol at a
(§3) concentration of 1 mg/ml. by dipping a 7mm disc into the suspension and
(§4) placing it on the agar surface. Incubation: 24-48 hours at 25-37°

[2] = system: Saccharomyces pastoranius X-52; assay: as above; assay type: cell-based, Saccharomyces pastorianus
Protocol: as §1, §2, §3, §4

[3] = system: Trichophyton mentagrophytes #6; assay: Agar plate disc diffusion test (MIC); assay type: cell-based; conditions: 0.01M sodium borate pH 7.5; 20 μg/disc top, twofold dilutions; 24 hours, 30° C.
Protocol: as §1
(§5) *Compounds were suspended in 0.01M sodium borate solution, pH 7.5. The
(§6) compounds were tested at 20 μg/disc at top level and at twofold
(§7) dilutions until end points were reached. Incubation: 24 hours; 30°

Candida albicans A-26 [4] = assay: Agar plate disc diffusion test (MIC); assay type: cell-based; conditions: 0.01M sodium borate pH 7.5; 20 μg/disc top, twofold dilutions; 24 hours, 30° C.
Protocol: as §1, §5, §6, §7

[5] = Toxicity in dog, intravenous administration; assay type: in vivo; conditions: 100 mg/kg per day for five days
Candida albicans A-26 [6] = assay: In vivo activity against Candida albicans A-26 infection in mice; set-up: species or system mice infected with Candida albicans A-26; conditions: Candida albicans, A26, sc, 24 h; for minimal effective dose: read-out: Lowest Active Dose
Protocol: The results of in vivo tests to evaluate the effectiveness of the compound of Examples 1-16 against an infection caused by Candida albicans A-26 in mice are given in Table V, where activity is measured by the ED50 value (the dose in mg/kg. required to cure 50% of the test animals). Where an ED50 value was not obtained, activity is indicated by the lowest dose at which a significant anti-fungal effect is observed. In this test, groups of male albino mice (specific pathogen free), weighing 18 to 20 grams, are infected intravenously with Candida albicans A-26. The animals are X-irradiated 24 hours prior to infection at about 50 roentgens per minute for 8 minutes (400 total dose) to reduce immune responses to the infecting organism. At 0, 4, and 24 hours post infection each group of mice is given graded doses subcutaneously of the test compound as a suspension in 33% polyethylene glycol-water. The day of death for each animal is recorded.
mg/kg. Dosages given 0, 4, and 24 hours post injection as suspension of
test compound in 30% PEG--H2 O. Number of mice receiving test
compounds at each dosage level; 6 mice per group. Number of mice in
control (untreated) group: 10 mice per group.
**As measured by increase in survival time of treated animals versus
control, calculated by method of Reed v Mueuch, American J. Hygiene, 27,

[7] = Blood levels after oral administration in mice (bioassay vs. Aspergillus montevidensis A35137); conditions: mouse, in vivo; for concentration at 4 h: po; for Blood Levels After Oral Administration In Mice: 240 min
Source text: determined by bioassay vs. Aspergillus montevidensis A35137.

Neurospora crassa 846 = assay: Agar plate disc diffusion test (zone of inhibition); assay type: cell-based
Protocol: as §1, §2, §3, §4

Candida albicans A-26 [8] = assay: as above; assay type: cell-based; conditions: suspension in methanol 1 mg/ml, 7mm disc; 24-48 hours at 25-37° C.
Protocol: as §1, §2, §3, §4

[9] = A23, suspension in methanol 1 mg/ml, 7mm disc, 24-48 hours at 25-37° C., read-out: Size of zone of inhibition, Trichophyton mentagraphytes A-23
[10] = X52, suspension in methanol 1 mg/ml, 7mm disc, 24-48 hours at 25-37° C., read-out: Size of zone of inhibition, Saccharomyces pastoranius X-52
[11] = mice, subcutaneous, schedule A (40, 20, 15, and 10 mg/kg), 0, 4, 24 hours, increase in survival time, read-out: ED50
[12] = mice, subcutaneous, schedule A (40, 20, 15, and 10 mg/kg), 0, 4, 24 hours
[13] = Neurospora crassa, 846, suspension in methanol 1 mg/ml, 7mm disc, *distinct measurable zone of inhibition with regrowth of organism around disc, read-out: Size of zone of inhibition, Neurospora crassa 846 (*)
[14] = Neurospora crassa, 846, suspension in methanol 1 mg/ml, 7mm disc, 24-48 hours at 25-37° C., read-out: Size of zone of inhibition, Neurospora crassa 846

SMILES	MIC, Trichophyton mentagrophytes #6 [3]	MIC, Candida albicans A-26 (Candida albicans A-26 [4])	Blood Levels After Oral Administration In Mice [7]	Size of zone of inhibition, Candida albicans A-26 (Candida albicans A-26 [8])	zone of inhibition at 1000 µg/mL [1, 9]	zone of inhibition at 1000 µg/mL [2, 10]	ED50 (Candida albicans A-26 [6]; [11])	minimal effective dose (Candida albicans A-26 [6]; [12])	zone of inhibition at 1000 µg/mL (Neurospora crassa 846; [13])	zone of inhibition at 1000 µg/mL (Neurospora crassa 846; [14])	other results
CCCCCCCCCCCCC(=O)N[C@H]1C[C@@H](O)[C@@H](O)NC(=O)[C@@H]2[C@@H](O)[C@@H](C)CN2C(=O)[C@H]([C@@H](C)O)NC(=O)[C@H]([C@H](O)[C@@H](O)c2ccc(O)cc2)NC(=O)[C@@H]2C[C@@H](O)CN2C(=O)[C@H]([C@@H](C)O)NC1=O [Example 2, n-Tridecanoyl Derivative of A-30912A Nucleus] (Tridecanoyl-[Orn(4R-OH,5R-OH)]T[Hyp][hTyr(3S-OH,4S-OH)]T[Pro(3S-OH,4S-Me)]; lactam 1-C)	0.039 μg/disc	0.625 μg/disc		30 mm							MIC (Candida albicans; read-out: MIC, Candida albicans A26): 0.312 µg/mL (≈ 0.314 µM); MIC (Candida albicans; strain SBH 16, agar dilution, read-out: MIC, Candida albicans SBH 16): 0.625 µg/mL (≈ 0.629 µM); MIC (Candida albicans; strain SBH 28, agar dilution, read-out: MIC, Candida albicans SBH 28): 0.625 µg/mL (≈ 0.629 µM); MIC (Candida albicans; strain SBH 29, agar dilution, read-out: MIC, Candida albicans SBH 29): 0.625 µg/mL (≈ 0.629 µM); MIC (Candida albicans; strain SBH 31, agar dilution, read-out: MIC, Candida albicans SBH 31): 0.625 µg/mL (≈ 0.629 µM); zone of inhibition at 1000 µg/mL ([1]; A23, read-out: Size of zone of inhibition, Trichophyton mentagraphytes A-23 (*)): 60 mm; zone of inhibition at 1000 µg/mL ([2]; X52, read-out: Size of zone of inhibition, Saccharomyces pastoranius X-52): 21 mm; SGPT levels [5]: increased SGPT levels; hemolysis [5]: evidence of hemolysis; outward signs of toxicity [5]: no outward signs of toxicity; ED50 (Candida albicans A-26 [6]): 34 mg/kg; minimal effective dose (Candida albicans A-26 [6]): 20 mg/kg; concentration at 4 h ([7]; four hours after 416 mg/kg by gavage, suspension in 33% PEG 400-H2O, read-out: Blood Levels After Oral Administration In Mice): 100 ng/mL; zone of inhibition at 1000 µg/mL (Neurospora crassa 846; Neurospora crassa, 846, read-out: Size of zone of inhibition, Neurospora crassa 846 (*)): 32 mm
CC/C=C\C/C=C\C/C=C\CCCCCCCC(=O)N[C@H]1C[C@@H](O)[C@@H](O)NC(=O)[C@@H]2[C@@H](O)[C@@H](C)CN2C(=O)[C@H]([C@@H](C)O)NC(=O)[C@H]([C@H](O)[C@@H](O)c2ccc(O)cc2)NC(=O)[C@@H]2C[C@@H](O)CN2C(=O)[C@H]([C@@H](C)O)NC1=O [Example 11] (X1-[Orn(4R-OH,5R-OH)]T[Hyp][hTyr(3S-OH,4S-OH)]T[Pro(3S-OH,4S-Me)]; lactam 1-C)	0.039 μg/disc	1.25 μg/disc	0 ng/mL	30 mm	36 mm	16 mm	> 40 mg/kg	> 40 mg/kg	33 mm		

Now from value to compound, other results behind:

MIC, Trichophyton mentagrophytes #6 [3]	MIC, Candida albicans A-26 (Candida albicans A-26 [4])	Blood Levels After Oral Administration In Mice [7]	SMILES	Size of zone of inhibition, Candida albicans A-26 (Candida albicans A-26 [8])	zone of inhibition at 1000 µg/mL [1, 9]	zone of inhibition at 1000 µg/mL [2, 10]	ED50 (Candida albicans A-26 [6]; [11])	minimal effective dose (Candida albicans A-26 [6]; [12])	zone of inhibition at 1000 µg/mL (Neurospora crassa 846; [13])	zone of inhibition at 1000 µg/mL (Neurospora crassa 846; [14])	other results
1.25 μg/disc and 0.625 μg/disc	2.5 μg/disc and 5.0 μg/disc		CCCCCCCCCCCCCCCCCCC(=O)N[C@H]1C[C@@H](O)[C@@H](O)NC(=O)[C@@H]2[C@@H](O)[C@@H](C)CN2C(=O)[C@H]([C@@H](C)O)NC(=O)[C@H]([C@H](O)[C@@H](O)c2ccc(O)cc2)NC(=O)[C@@H]2C[C@@H](O)CN2C(=O)[C@H]([C@@H](C)O)NC1=O [Example 12] (Nonadecanoyl-[Orn(4R-OH,5R-OH)]T[Hyp][hTyr(3S-OH,4S-OH)]T[Pro(3S-OH,4S-Me)]; lactam 1-C)	19 mm		17 mm		≥ 5 mg/kg	18 mm		zone of inhibition at 1000 µg/mL ([1]; A23, suspension in methanol 1 mg/ml, 7mm disc, *distinct measurable zone of inhibition with regrowth of organism around disc, read-out: Size of zone of inhibition, Trichophyton mentagraphytes A-23 (*)): 22 mm; concentration at 4 h ([7]; 416 mg/kg): 54000 ng/mL
5 μg/disc	5.0 μg/disc	0 ng/mL	CCCCCCCCCCCCCCCCCCCC(=O)N[C@H]1C[C@@H](O)[C@@H](O)NC(=O)[C@@H]2[C@@H](O)[C@@H](C)CN2C(=O)[C@H]([C@@H](C)O)NC(=O)[C@H]([C@H](O)[C@@H](O)c2ccc(O)cc2)NC(=O)[C@@H]2C[C@@H](O)CN2C(=O)[C@H]([C@@H](C)O)NC1=O [Example 13] (Arachidoyl-[Orn(4R-OH,5R-OH)]T[Hyp][hTyr(3S-OH,4S-OH)]T[Pro(3S-OH,4S-Me)]; lactam 1-C)	16 mm	16 mm	18 mm	40 mg/kg	10 mg/kg		13 mm	
5 μg/disc	5.0 μg/disc	0 ng/mL	CCCCCCCCCCCCCCCCCCCCCC(=O)N[C@H]1C[C@@H](O)[C@@H](O)NC(=O)[C@@H]2[C@@H](O)[C@@H](C)CN2C(=O)[C@H]([C@@H](C)O)NC(=O)[C@H]([C@H](O)[C@@H](O)c2ccc(O)cc2)NC(=O)[C@@H]2C[C@@H](O)CN2C(=O)[C@H]([C@@H](C)O)NC1=O [Example 15] (Docosanoyl-[Orn(4R-OH,5R-OH)]T[Hyp][hTyr(3S-OH,4S-OH)]T[Pro(3S-OH,4S-Me)]; lactam 1-C)	12 mm	20 mm	19 mm	> 40 mg/kg	> 40 mg/kg		15 mm	
